Here are results for two compounds from patent US20070053950A1, “Composition of polymer microcapsules of biocide for coating material” (priority 2005, published 2007).

What all share (type): cell-based
One experiment relates to Oscillatoria tenius. Put plainly: Filter paper bioassay, antialgal activity of biocide dispersed in paint. The settings on record: around 5 wt % Irgarol in paint; taken after 0, 15 and 30 days of dispersion; even after 100 days. The source says:
(§1) W. et.al., Amer. J. Clin. Pathol., 45 (1966) p 493-496 and Thomberry, H. H. Phytopathology 40 (1950) p 419-420). […] The antifungal activity of all the composition samples is indicated by zone of inhibition that is developed around the filter paper discs against the vegetative growth after the spore germination. […] Similar type of results are obtained when microcapsules stored in paint for 12 days and 30 days are taken for such biocidal analysis. The antialgal activity of microencapsulated Irgarol and unencapsulated Irgarol against algal strains (Oscillatoria tenius and Chlorella fusca) is assessed by filter paper bioassay by method as described above for fungal activity. Unencpasulated Irgarol and microcapsules of Irgarol are dispersed in paint such that the concentration of Irgarol is around 5 wt % based on weight of paint and taken for analysis after 0 days, 15 days and 30 days of dispersion period.

A further experiment concerns Chlorella fusca. The description is as above. The settings on record: around 5 wt % Irgarol in paint; taken after 0, 15 and 30 days of dispersion; even after 100 days.
Source text: as §1

Experiment [1] deals with fungal strain Aspergillus niger (NRRL337). Put plainly: Filter paper bioassay, antifungal activity of biocide dispersed in paint (zone of inhibition). The note with it: sample taken after 0 days of dispersion. The protocol:
Microcapsules of Zinc Pyrithione and unencpasulated Zinc Pyrithione are dispersed in paint such that the concentration of Zinc Pyrithione is around 5 wt % based on weight of paint and taken for analysis after 0 days, 12 days and 30 days of dispersion period. The antifungal activity of all the composition samples is indicated by zone of inhibition that is developed around the filter paper discs against the vegetative growth after the spore germination. The zone of inhibition is measured after 2 days and 100 days after the day on which samples are taken for filter paper bioassay.

Take `CSc1nc(NC2CC2)nc(NC(C)(C)C)n1` [unencapsulated irgarol, Irgarol]: the “inhibitory activity against algal strain” value in the experiment with Oscillatoria tenius and in the experiment with Chlorella fusca was “very strong inhibitory activity” each time.

As to “Zinc Pyrithione [Unencapsulated Zinc Pyrithione]”, in experiment [1] (around 5 wt % Zinc Pyrithione in paint, zone measured after 2 days), the “Zone of inhibition (mm) (after 2 days) A” value is reported as 41 mm. For the same compound, the “Zone of inhibition (mm) (after 100 days) B” value in experiment [1] (around 5 wt % Zinc Pyrithione in paint, zone measured after 100 days) was 32 mm. The “% Reduction in inhibition zone C = [(A − B) × 100]/A” value in experiment [1] (around 5 wt % biocide in paint, from 2 days to 100 days) is on record as 21.9%.
